Assay results as given in publication PMC6299481, “Deciphering the Evolution of Cephalosporin Resistance to Ceftolozane-Tazobactam in Pseudomonas aeruginosa” (mBio, 2018).

How the values were obtained:
[1] = system: E. coli DH10B pBC SK blaPDC-3 E221K; experiment: MIC, MH agar dilution (CLSI); assay type: cell-based, Escherichia coli; details: strain expressing E221K, highest MICs among variant strains
Protocol: Variant genes were synthesized into the pBC SK (-) vector by Celtek Bioscience (Franklin, TN). Mueller-Hinton (MH) agar-dilution MIC measurements were performed against isogenic transformants producing PDC-3 and nine variants of PDC-3 in pBC SK (-) according to the Clinical and Laboratory Standards Institute (CLSI) guidelines as previously described ([39], [48]). Avibactam, LP-06, and S02030 were tested at a constant 4 µg/ml in combination with various concentrations of ceftazidime. Piperacillin-tazobactam was maintained at a ratio of 8 piperacillin to 1 tazobactam. Ceftolozane-tazobactam was maintained at a ratio of 2 ceftolozane to 1 tazobactam. The MICs are reported as the concentrations at which bacterial growth was no longer observed. All MIC measurements were performed at least three times.

[2] = molecular target: T1, E221K variant of PDC-3 β-lactamase (Pseudomonas aeruginosa, UniProt P24735, E247K/T105A); experiment: BATSI inhibition kinetics (IC50), nitrocefin reporter; assay type: biochemical; details: E221K (20 nM); 5-min preincubation; 100 μM nitrocefin reporter substrate
T1 construct: produces the corresponding PDC-3 protein without its signal peptide; made in house; host or cells: E. coli Origami 2 DE3, pET24a (+) blaPDC-3-E221K
Protocol: (§1) Because of the time-dependent inhibition observed previously with some of the chiral boronates ([43]), the BATSIs were preincubated with enzyme for 5 min in phosphate-buffered saline before initiation of the reaction with the addition of substrate. The initial velocity (0 to 10 s) was measured in the presence of a constant concentration of enzyme (1.5 nM PDC-3 and 20 nM E221K) and increasing concentrations of the inhibitors against the fixed concentration (100 μM) of the indicator substrate, nitrocefin. The IC50 is the concentration of inhibitor that reduces the velocity by 50%. IC50 values were determined by fitting the initial velocity (v0) measurements to equation 2.(2) v0= Vmax[S]/Km[1+ I/IC50]+[S]

PDC-3 β-lactamase [3] = molecular target: T2, PDC-3 β-lactamase (Pseudomonas aeruginosa, UniProt P24735, T105A); experiment: as above; assay type: biochemical; details: PDC-3 (1.5 nM); 5-min preincubation; 100 μM nitrocefin reporter substrate
T2 construct: produces the corresponding PDC-3 protein without its signal peptide; made in house; host or cells: E. coli Origami 2 DE3, pET24a (+) blaPDC-3
Protocol: as §1

[4] = molecular target: T1, E221K variant of PDC-3 β-lactamase; experiment: Thermal denaturation by circular dichroism; assay type: binding; details: 10 μM E221K with 200 μM inhibitor; CD, 20 to 80°C
Protocol: (§2) Circular dichroism (CD) experiments were carried out in a Jasco (Easton, MD) J-815 spectrometer with a Peltier effect temperature controller. Quartz cells with a 0.1-cm path length were used for all experiments.
(§3) PDC-3 enzyme and the E221K variant (10 μM) with or without S02030 or LP-06 (200 μM) were monitored for thermal denaturation by CD at λ215 and λ221 between 20 and 80°C with a heating rate of 2°C/min. Two-state behavior was indicated by identical curves at each wavelength. Raw equilibrium denaturation data were normalized to the fraction of denatured protein (fU). With the assumption of a reversible two-state transition (N ↔ U), equilibrium constants (Keq) at any given temperature were calculated, as previously described ([32]), using equation 4 (4) Keq=fU/(1−fU)
(§4) The melting temperature Tm was determined at the midpoint of equilibrium folding (T = Tm) when ΔG = 0. (5) ln Keq=1/T (−ΔH/R)+ΔS/R
(§5) The free energy of unfolding was determined as previously described using the equation ΔΔGu = ΔTmΔSu^PDC-3 (Schellman), where ΔSu^PDC-3 = 0.326 ± 0.02 Kcal mol^−1 K^−1.

PDC-3 β-lactamase [5] = molecular target: T2, PDC-3 β-lactamase; experiment: Thermal denaturation by circular dichroism; assay type: binding; details: 10 μM PDC-3 with 200 μM inhibitor; CD, 20 to 80°C
Protocol: as §2, §3, §4, §5

T2 sequence (P24735 27-397 T105A): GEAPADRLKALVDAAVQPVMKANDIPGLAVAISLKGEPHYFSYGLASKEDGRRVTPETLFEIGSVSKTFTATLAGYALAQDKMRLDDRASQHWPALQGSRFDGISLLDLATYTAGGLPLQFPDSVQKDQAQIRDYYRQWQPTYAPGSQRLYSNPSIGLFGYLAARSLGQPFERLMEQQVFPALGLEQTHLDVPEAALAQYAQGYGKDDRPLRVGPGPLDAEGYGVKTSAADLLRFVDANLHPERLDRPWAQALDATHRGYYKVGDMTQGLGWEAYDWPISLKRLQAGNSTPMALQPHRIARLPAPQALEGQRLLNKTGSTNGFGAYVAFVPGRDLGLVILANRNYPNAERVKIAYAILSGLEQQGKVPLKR
T1 sequence (P24735 27-397 T105A/E247K): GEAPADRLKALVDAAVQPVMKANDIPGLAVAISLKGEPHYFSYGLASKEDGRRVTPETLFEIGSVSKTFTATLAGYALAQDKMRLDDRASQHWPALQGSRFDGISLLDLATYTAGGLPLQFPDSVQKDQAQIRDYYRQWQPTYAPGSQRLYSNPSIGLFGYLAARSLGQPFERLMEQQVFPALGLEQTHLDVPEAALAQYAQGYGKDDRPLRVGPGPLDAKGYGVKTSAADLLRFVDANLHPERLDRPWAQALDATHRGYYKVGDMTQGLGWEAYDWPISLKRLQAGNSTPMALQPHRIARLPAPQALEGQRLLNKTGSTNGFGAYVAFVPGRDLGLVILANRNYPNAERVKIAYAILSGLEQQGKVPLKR

O=C(Cc1cccs1)N[C@@H](Cn1cc(C(=O)O)nn1)B(O)O [S02030]
MICs of ceftolozane and ceftazidime combined with BATSI [1]: 8 to 16 mg/L
IC50 [2]: 769 ± 30 nM
IC50 (PDC-3 β-lactamase [3]): 62 ± 2 nM
increase in thermal stability (Tm) on inhibitor binding [4]: 3 to 4 °C
increase in thermal stability (Tm) on inhibitor binding (PDC-3 β-lactamase [5]): 6 °C
